Converted amounts (≈) assume the structure as drawn.
Assays:
Assay in all cases: In vitro antibacterial activity (MIC, NCCLS M7-A5 dilution susceptibility test)
Type in all cases: cell-based
Escherichia coli DC2 = details: for MIC: read-out: Minimum Inhibitory Concentration (MIC) Escherichia coli DC2
Description: (§1) Antimicrobial susceptibility testing was performed in accordance with the National Committee for Clinical Laboratory Standards (NCCLS) procedure [M7-A5, 2001: Methods for Dilution Antimicrobial Susceptibility Tests for Bacteria That Grow Aerobically; Approved Standard-Fifth Edition American National Standard].

[1] = system: Staphylococcus aureus 101; details: for MIC: read-out: Minimum Inhibitory Concentration (MIC) Staphylococcus aureus 101
Description: as §1

[2] = system: Staphylococcus aureus ATCC25923; details: for MIC: read-out: Minimum Inhibitory Concentration (MIC) Staphylococcus aureus ATCC25923
Description: as §1

Compound	Minimum Inhibitory Concentration (MIC) Escherichia coli DC2 (Escherichia coli DC2)	Minimum Inhibitory Concentration (MIC) Staphylococcus aureus 101 [1]	Minimum Inhibitory Concentration (MIC) Staphylococcus aureus ATCC25923 [2]	MIC (Escherichia coli DC2)	MIC [1]	MIC [2]
3,5-Bis-(trifluoromethyl)-N′-(2,3,4-trihydroxy-benzylidene)-benzohydrazide [Example 41]	na (na means not active at concentrations less than 128 μg/ml)	64 micrograms/ml	64 micrograms/ml	–	–	–
O=C(NN=Cc1cc(O)c(O)cc1O)c1ccccc1-n1cccc1 [Example 44, 2-Pyrrol-1-yl-N′-(2,4,5-trihydroxy-benzylidene)-benzohydrazide]	–	–	–	128 µg/mL (≈ 379 µM)	64 µg/mL (≈ 190 µM)	64 µg/mL (≈ 190 µM)
O=C(NN=Cc1cc(Cl)cc(Cl)c1O)c1ccc(Cl)c(C(F)(F)F)c1 [Example 46, 4-Chloro-3-trifluoromethyl-N′-(2-hydroxy-3,5-dichloro-benzylidene)-benzohydrazide]	–	–	–	> 128 µg/mL	128 µg/mL (≈ 311 µM)	128 µg/mL (≈ 311 µM)
COc1ccc(C(=O)NN=Cc2ccc(O)c(O)c2O)cc1 [Example 39, 4-Methoxy-N′-(2,3,4-trihydroxy-benzylidene)-benzohydrazide]	–	–	–	64 µg/mL (≈ 212 µM)	64 µg/mL (≈ 212 µM)	64 µg/mL (≈ 212 µM)
O=C(NN=Cc1ccc(O)c(O)c1O)c1cccc(Cl)c1-n1cccc1 [Example 42, 3-Chloro-2-pyrrol-1-yl-N′-(2,3,4-trihydroxy-benzylidene)-benzohydrazide]	–	–	–	128 µg/mL (≈ 344 µM)	32 µg/mL (≈ 86.1 µM)	32 µg/mL (≈ 86.1 µM)
O=C(NN=Cc1ccc(O)c(O)c1O)c1ccc(Cl)c(C(F)(F)F)c1 [Example 45, 4-Chloro-3-trifluoromethyl-N′-(2,3,4-trihydroxy-benzylidene)-benzohydrazide]	–	–	–	2 µg/mL (≈ 5.34 µM)	1 µg/mL (≈ 2.67 µM)	0.5 µg/mL (≈ 1.33 µM)
O=C(NN=Cc1cccc(O)c1O)c1ccc(Cl)c(Cl)c1 [Example 40, 3,4-Dichloro-N′-(2,3-dihydroxy-benzylidene)-benzohydrazide]	–	–	–	> 128 µg/mL	4 µg/mL (≈ 12.3 µM)	4 µg/mL (≈ 12.3 µM)
O=C(NN=Cc1cc(Cl)cc(Cl)c1O)c1cccc(Cl)c1-n1cccc1 [Example 43, 3-Chloro-2-pyrrol-1-yl-N′-(2-hydroxy-3,5-dichloro-benzylidene)-benzohydrazide]	–	–	–	> 128 µg/mL	2 µg/mL (≈ 4.89 µM)	2 µg/mL (≈ 4.89 µM)

Source: patent US20040110963A1, “Novel hydrazones” (priority 2001, published 2004)
